A value given as a limit tells only on which side of the number the result lay.

The test system of this experiment is Human RSV-A (“Long” strain). In words: RSV in vitro cytoprotection assay in HEp-2 cells (ATPlite readout). In kind it is cell-based. Particulars: human respiratory syncytial virus, 96 h; HEp-2 cells, 4-day incubation, ATPlite; read-out: Human RSV-A (“Long” strain) EC50. The source says:
RSV is a single stranded negative sense RNA virus that causes respiratory tract infections which can be dangerous to infants, the elderly, and immunosuppressed individuals. Currently there is no vaccine, and therapeutic options are both costly and of limited effectiveness. These approved treatments are Ribavirin, and Palivizumab/Synagis (a monoclonal antibody). RSV has two genotypes, A and B, which differ primarily in the structure of the virus' surface “G” attachment protein. Our current primary screen focusses on RSV-A and uses an in vitro cytoprotection assay where compounds are added in 2-fold dilutions to cells which are then subjected to fully replicative viral particles. Cell viability is measured several days later along with separate measurements of compound cytotoxicity. This report focuses on the results of our most recent screening of compounds.
HEp-2 cells, (originally derived from tumors grown in irradiated-cortisonised weanling rats that had been injected with epidermoid carcinoma tissue from a person's larynx, but later found to be indistinguishable from HeLa cells by PCR DNA analysis), were used for the culturing of genotype A, “Long” strain RSV. Flasks were inoculated with RSV and viral stocks were collected once cytopathic effect (CPE) was greater than 90%. Viral stocks in 25% sucrose media were snap frozen using liquid nitrogen to increase viral stability. Viral stock titers were quantified by tissue culture infectious dose 50% (TCID50) using 8,000 cells per well and 3-fold viral dilutions across a 96-well plate, cultured for 4 days.
Following extensive parameter testing, the final assay is run as follows: HEp-2 cells are seeded into the inner 60 wells of a 96-well plate at 8,000 cells per well in a volume of 50 μL using Growth Media (DMEM without phenol red, 1% L-Glut, 1% Penn/Strep, 1% nonessential amino acids, 10% FBS). 2-Fold serial dilutions of control and test compounds are added to the wells in duplicate in a total volume of 25 μL. Viral stock is then added to the wells in a volume of 25 μL, bringing the total volume of each well to 100 μL. Each 96-well plate has a control column of 6 wells with cells and virus but no compound (negative control, max CPE), a column with cells but no compound or virus (positive control, minimum CPE), and a column with no cells or virus or compound (background plate/reagent control). The control wells with cells but no virus are given an additional 25 uL of growth media containing an equal quantity of sucrose as those wells receiving the viral stock in order to keep consistent in media and volume conditions. The outer wells of the plate are filled with 125 μL of growth media to act as a thermal and evaporative moat around the test wells. Following a 4-day incubation period, the plates are read using ATPlite (50 uL added per well), which quantifies the amount of ATP (a measure of cell health) present in each well. Assay plates are read using the Envision luminometer. In parallel, cytotoxicity is examined on an additional 96-well plate treated in an identical manner, but substituting the 25 μL of viral stock for 25 μL of growth media. […] EC50 ranges are as follows: A<0.01 μM; B 0.01-0.05 μM; C>0.05 μM.
For orientation: ATP-based viability assays read luminescence as a measure of living cells.
A word on the EC50: it is the concentration needed to bring the measured effect to its halfway point. On to `Cc1ccc(C(=O)Nc2ccc(C(=O)N3CCc4c(sc(-c5nc6cccc(F)c6[nH]5)c4F)-c4ncccc43)cc2)c(N2CC3(CCOCC3)C2)n1` [Example 85], for which the EC50 was under 0.01 µM.
As for `Cc1ccc(C(=O)Nc2ccc(C(=O)N3CCc4c(sc(C(=O)Nc5c(F)cccc5Cl)c4F)-c4ncccc43)cc2)c(N2CC3(CCOCC3)C2)n1` [Example 86], the EC50 was under 0.01 µM.
Then `Cc1ccc(C(=O)Nc2ccc(C(=O)N3CCc4c(sc(C(=O)Nc5c(F)cccc5C(F)(F)F)c4F)-c4ncccc43)cc2)c(N2CC3(CCOCC3)C2)n1` [Example 87], with under 0.01 µM; and `Cc1ccc(C(=O)Nc2ccc(C(=O)N3CCc4c(sc(-c5nc6ccc(F)cc6[nH]5)c4F)-c4ncccc43)cc2)c(N2CC3(CCOCC3)C2)n1` [Example 88], with under 0.01 µM.
On to `Cc1cnc(N2CCC3(CC2)COC3)c(C(=O)Nc2ccc(C(=O)N3CCc4cc(C(=O)Nc5c(F)cccc5F)sc4-c4ncccc43)cc2)c1` [Example 89], for which the EC50 is under 0.01 µM.
Then `Cc1cnc(N2CCC3(CC2)COC3)c(C(=O)Nc2ccc(C(=O)N3CCc4cc(C(=O)Nc5ccccc5)sc4-c4ncccc43)cc2)c1` [Example 90], with 0.01 to 0.05 µM.
In the case of `Cc1cnc(N2CCC3(CC2)COC3)c(C(=O)Nc2ccc(C(=O)N3CCc4cc(C(=O)Nc5c(Cl)cccc5Cl)sc4-c4ncccc43)cc2)c1` [Example 91], the EC50 is under 0.01 µM.
For `Cc1cnc(N2CCC3(CC2)COC3)c(C(=O)Nc2ccc(C(=O)N3CCc4cc(C(=O)Nc5c(C)cccc5C#N)sc4-c4ncccc43)cc2)c1` [Example 92], the EC50 lay in the range of 0.01 to 0.05 µM.
In the case of `Cc1cnc(N2CCC3(CC2)COC3)c(C(=O)Nc2ccc(C(=O)N3CCc4cc(C(=O)Nc5c(F)cccc5Cl)sc4-c4ncccc43)cc2)c1` [Example 93], the EC50 was under 0.01 µM.
To `Cc1cnc(N2CCC3(CC2)COC3)c(C(=O)Nc2ccc(C(=O)N3CCc4cc(C(=O)Nc5c(F)cccc5C(F)(F)F)sc4-c4ncccc43)cc2)c1` [Example 94] belongs 0.01 to 0.05 µM.
To `Cc1cnc(N2CCC3(CC2)COC3)c(C(=O)Nc2ccc(C(=O)N3CCc4cc(C(=O)Nc5ncccc5F)sc4-c4ncccc43)cc2)c1` [Example 95] belongs 0.01 to 0.05 µM; to `Cc1cnc(N2CCC3(CC2)COC3)c(C(=O)Nc2ccc(C(=O)N3CCc4cc(-c5nc6cccc(F)c6[nH]5)sc4-c4ncccc43)cc2)c1` [Example 97], 0.01 to 0.05 µM.
Then `Cc1cnc(N2CCC3(CC2)COC3)c(C(=O)Nc2ccc(C(=O)N3CCc4cc(C(=O)Nc5c(C)cccc5F)sc4-c4ncccc43)cc2)c1` [Example 98], with under 0.01 µM.
Consider `Cc1cnc(N2CC3(CCOCC3)C2)c(C(=O)Nc2ccc(C(=O)N3CCc4cc(C(=O)Nc5c(F)cccc5F)oc4-c4ncc(F)cc43)cc2)c1` [Example 99], for which the 50% effective concentration (EC50) is under 0.01 µM.
To `Cc1cnc(N2CC3(CCOCC3)C2)c(C(=O)Nc2ccc(C(=O)N3CCc4cc(C(=O)Nc5c(Cl)cccc5Cl)oc4-c4ncc(F)cc43)cc2)c1` [Example 100] belongs 0.01 to 0.05 µM; to `Cc1cnc(N2CC3(CCOCC3)C2)c(C(=O)Nc2ccc(C(=O)N3CCc4cc(C(=O)Nc5c(F)cccc5Cl)oc4-c4ncc(F)cc43)cc2)c1` [Example 101], under 0.01 µM.
To `Cc1cnc(N2CC3(CCOCC3)C2)c(C(=O)Nc2ccc(C(=O)N3CCc4cc(C(=O)Nc5c(F)cccc5C(F)(F)F)oc4-c4ncc(F)cc43)cc2)c1` [Example 102] belongs 0.01 to 0.05 µM; to `Cc1cnc(N2CC3(CCOCC3)C2)c(C(=O)Nc2ccc(C(=O)N3CCc4cc(-c5nc6ccccc6[nH]5)oc4-c4ncc(F)cc43)cc2)c1` [Example 103], 0.01 to 0.05 µM.
Then `O=C(Nc1c(F)cccc1F)c1cc2c(o1)-c1ncc(F)cc1N(C(=O)c1ccc(NC(=O)c3cc4c(nc3N3CC5(CCOCC5)C3)CCC4)cc1)CC2` [Example 104], with under 0.01 µM.
For the compound `O=C(Nc1c(Cl)cccc1Cl)c1cc2c(o1)-c1ncc(F)cc1N(C(=O)c1ccc(NC(=O)c3cc4c(nc3N3CC5(CCOCC5)C3)CCC4)cc1)CC2` [Example 105], the EC50 is under 0.01 µM.
To `O=C(Nc1c(F)cccc1Cl)c1cc2c(o1)-c1ncc(F)cc1N(C(=O)c1ccc(NC(=O)c3cc4c(nc3N3CC5(CCOCC5)C3)CCC4)cc1)CC2` [Example 106] belongs under 0.01 µM; to `O=C(Nc1c(F)cccc1C(F)(F)F)c1cc2c(o1)-c1ncc(F)cc1N(C(=O)c1ccc(NC(=O)c3cc4c(nc3N3CC5(CCOCC5)C3)CCC4)cc1)CC2` [Example 107], under 0.01 µM.
To `O=C(Nc1ccc(C(=O)N2CCc3cc(-c4nc5ccccc5[nH]4)oc3-c3ncc(F)cc32)cc1)c1cc2c(nc1N1CC3(CCOCC3)C1)CCC2` [Example 108] belongs 0.01 to 0.05 µM; to `Cc1cnc(N2CC3(CCOCC3)C2)c(C(=O)Nc2ccc(C(=O)N3CCc4cc(-c5ccc[nH]c5=O)oc4-c4ncc(F)cc43)cc2)c1` [Example 109], 0.01 to 0.05 µM; to `Cc1cnc(N2CC3(CCOCC3)C2)c(C(=O)Nc2ccc(C(=O)N3CCc4cc(-c5ccc[nH]c5=O)sc4-c4ncc(F)cc43)cc2)c1` [Example 110], 0.01 to 0.05 µM.
To `Cc1cnc(N2CC3(CCOCC3)C2)c(C(=O)Nc2ccc(C(=O)N3CCc4cc(C(=O)Nc5c(F)cccc5F)oc4-c4cccnc43)cc2)c1` [Example 111] belongs 0.01 to 0.05 µM; to `Cc1cnc(N2CC3(CCOCC3)C2)c(C(=O)Nc2ccc(C(=O)N3CCc4cc(C(=O)Nc5c(C)cccc5F)oc4-c4cccnc43)cc2)c1` [Example 112], over 0.05 µM.
On to `Cc1cnc(N2CC3(CCOCC3)C2)c(C(=O)Nc2ccc(C(=O)N3CCc4cc(C(=O)Nc5c(F)cccc5Cl)oc4-c4cccnc43)cc2)c1` [Example 113], for which the EC50 is over 0.05 µM.
Then `Cc1cnc(N2CC3(CCOCC3)C2)c(C(=O)Nc2ccc(C(=O)N3CCc4cc(-c5nc6ccccc6[nH]5)oc4-c4cccnc43)cc2)c1` [Example 114], with over 0.05 µM; and `Cc1cnc(N2CC3(CCOCC3)C2)c(C(=O)Nc2ccc(C(=O)N3CCc4cc(C(=O)Nc5c(F)cccc5F)oc4-c4ncccc43)cc2)c1` [Example 115], with 0.01 to 0.05 µM; and `Cc1cnc(N2CC3(CCOCC3)C2)c(C(=O)Nc2ccc(C(=O)N3CCc4cc(C(=O)Nc5c(F)cccc5Cl)oc4-c4ncccc43)cc2)c1` [Example 117], with 0.01 to 0.05 µM.
Then `Cc1cnc(N2CC3(CCOCC3)C2)c(C(=O)Nc2ccc(C(=O)N3CCc4cc(-c5nc6ccccc6[nH]5)oc4-c4ncccc43)cc2)c1` [Example 118], with 0.01 to 0.05 µM; and `O=C(Nc1c(F)cccc1F)c1cc2c(o1)-c1ncccc1N(C(=O)c1ccc(NC(=O)c3cc4c(nc3N3CC5(CCOCC5)C3)CCC4)cc1)CC2` [Example 119], with under 0.01 µM; and `O=C(Nc1ccc(C(=O)N2CCc3cc(-c4nc5ccccc5[nH]4)oc3-c3ncccc32)cc1)c1cc2c(nc1N1CC3(CCOCC3)C1)CCC2` [Example 120], with 0.01 to 0.05 µM.
Then `Cc1cnc(N2CC3(CCOCC3)C2)c(C(=O)Nc2ccc(C(=O)N3CCc4cc(C(=O)Nc5c(F)cccc5F)oc4-c4ccncc43)cc2)c1` [Example 121], with 0.01 to 0.05 µM; and `Cc1cnc(N2CC3(CCOCC3)C2)c(C(=O)Nc2ccc(C(=O)N3CCc4cc(C(=O)Nc5c(F)cc(F)cc5F)oc4-c4ccncc43)cc2)c1` [Example 122], with over 0.05 µM; and `Cc1cnc(N2CC3(CCOCC3)C2)c(C(=O)Nc2ccc(C(=O)N3CCc4cc(C(=O)Nc5c(C)cccc5F)oc4-c4ccncc43)cc2)c1` [Example 123], with over 0.05 µM.
On to `Cc1cnc(N2CC3(CCOCC3)C2)c(C(=O)Nc2ccc(C(=O)N3CCc4cc(-c5nc6ccccc6[nH]5)oc4-c4ccncc43)cc2)c1` [Example 124], for which the EC50 was over 0.05 µM.
Then `Cc1cnc(N2CC3(CCOCC3)C2)c(C(=O)Nc2ccc(C(=O)N3CCc4cc(C(=O)Nc5c(F)cccc5Cl)oc4-c4ccncc43)cc2)c1` [Example 125], with 0.01 to 0.05 µM; and `Cc1cnc(N2CC3(CCOCC3)C2)c(C(=O)Nc2ccc(C(=O)N3CCc4cc(C(=O)Nc5c(F)cccc5C(F)(F)F)oc4-c4ccncc43)cc2)c1` [Example 126], with over 0.05 µM.
To `Cc1cnc(N2CC3(CCOCC3)C2)c(C(=O)Nc2ccc(C(=O)N3CCc4cc(-c5nc6cccc(F)c6[nH]5)oc4-c4ccncc43)cc2)c1` [Example 127] belongs over 0.05 µM; to `Cc1cnc(N2CC3(CCOCC3)C2)c(C(=O)Nc2ccc(C(=O)N3CCc4cc(C(=O)Nc5c(F)cccc5F)sc4-c4cc(C)sc43)cc2)c1` [Example 128], 0.01 to 0.05 µM.

Values taken from patent US10851115B2, “Heterocyclic compounds as RSV inhibitors” (Enanta Pharmaceuticals, Inc., priority 2017, dated 2020).
